“Also recorded” adds a separate entry of the source.
Experiments:
[1] = system: hippocampus; settings: low-dose, MCI patients (Bakker et al., 2012); cited from earlier work
[2] = system: AD mouse models; settings: AD mouse models (Sanchez et al., 2012); cited from earlier work
[3] = system: hippocampal cultures; assay: firing rate homeostasis: baclofen perturbation in MEA cultures; assay type: cell-based
Procedure: The stable reduction in MFR induced by teriflunomide could have been the result of either impairment of homeostatic compensation mechanisms, or a change in a firing set-point value. A perturbation of firing rate in vivo results in re-normalization to its set-point level 2 days following perturbation through homeostatic mechanisms (Hengen et al., 2013). […] In order to determine the role DHODH inhibition in homeostatic process, we added 10 μM baclofen following 12 hr incubation with teriflunomide (FIG. 7).

[4] = system: hippocampal cultures; settings: returns to baseline level after 2 days (Slomowitz et al., 2015); cited from earlier work
[5] = system: cultured hippocampal neurons; assay: multi-electrode array (MEA) recording of spiking activity / mean firing rate; assay type: cell-based; settings: for effect of teriflunomide on MFR in DHODH knockdown cultures: 50 μM teriflunomide in shDHODH-infected cultures
Description: In order to test how DHODH targeting affects neuronal activity, we examined the effect of the DHODH inhibitor teriflunomide on cultured hippocampal neurons grown on a multi-electrode chip (MEA) that allows a long-term monitoring of spiking activity from many neurons simultaneously (FIGS. 1A-1C).
In order to test the specificity of teriflunomide effect on firing rate, we used a lentiviral-based shRNA delivery system (shDHODH; TRCN0000294665, Sigma Aldrich) to knockdown DHODH expression in hippocampal cultures.
In order to test whether the change in MFR resulting from DHODH inhibition is induced by the reduction of available uridine (a precursor of pyrimidines) or results from a change in the mitochondrial function, we co-applied 100 μM uridine mono-phosphate with teriflunomide in MEA recordings.

[6] = system: hippocampal neurons; assay: intrinsic excitability: action potentials evoked by somatic current injections (F-I curves); assay type: cell-based; settings: teriflunomide incubation
Procedure: Modulation of intrinsic excitability is an important facet of neuronal adaptation. In this experiment we elicited action potentials (APs) in response to increasing somatic current injections ranging from 0 to +500 pA (F-I curves) in the presence of postsynaptic receptor blockers (FIGS. 3A-3B). As found, teriflunomide induced a reduction in the maximal firing frequency from 31.4±2.29 Hz to 17.2±3.34 after 4 hr of incubation, and to 16.25±3.06 Hz after 2 days of incubation (FIGS. 3B-3C). Input resistance was not affected by teriflunomide application (FIGS. 3D-3E).

[7] = system: hippocampal neurons; assay: inhibition-excitation (I/E) ratio from sEPSCs and sIPSCs (integrated conductances GE, GI); assay type: cell-based
Description: The inhibition-excitation (I/E) ratio constitutes an important factor in firing rate homeostasis, and in pathology of epilepsy. To assess the effects of DHODH inhibition on the I/E ratio, the spontaneous excitatory and inhibitory postsynaptic currents (sEPSCs, sIPSCs, respectively) were isolated at the same cell based on the reversal potentials of α-amino-3-hydroxy-5-methyl-4-isoxazolepropionic acid receptor (AMPAR)-mediated excitatory and GABAAR-mediated inhibitory currents, and the integrated excitatory (FIG. 4A) and inhibitory conductance's (GE, GI, respectively) were calculated (FIGS. 4B-4D).

[8] = system: hippocampal neurons; assay: mEPSC recording (excitatory quantal events); assay type: cell-based
Procedure: In this experiment we tested whether DHODH inhibition affects excitatory quantal events, by recording mEPSCs from hippocampal neurons under control conditions and 2 days following teriflunomide application (FIG. 5). As found, chronic teriflunomide incubation triggered a significant decrease of ˜26% in mEPSC amplitude (FIGS. 5A-5B).

[9] = system: pilocarpine-induced seizures; assay: pilocarpine model of TLE, behavioral seizure duration; assay type: in vivo; settings: 15 mg/kg IP daily for 3 days, pilocarpine 330 mg/kg IP, C57 male mice, p=0.0157
Description: In order to determine the potential therapeutic benefit of DHODH inhibition for epilepsy treatment, we used the pilocarpine model of TLE, which is one of the most common mouse models that recapitulates many aspects of the human pathology. The pilocarpine model of TLE appears to be highly isomorphic with the human disease including induction of acute status epilepticus, and latent period followed by the appearance of spontaneous recurrent seizures, as well as the occurrence of widespread lesions in the CNS (Curia et al., 2008). These features make it highly suitable for testing the efficacy of antiepileptic drugs (Leite et al., 2002). We performed intraperitoneal (IP) daily injections of teriflunomide (15 mg/kg) or vehicle for 3 days, in 6-week-old male mice of C57 background. On the third day, mice were injected subcutaneously (SC) with 2 mg/kg scopolamine to prevent peripheral effects, and 30 min later with 330 mg/kg pilocarpine IP. […] Because seizure duration correlates with hippocampal pathology in the pilocarpine model (Mazzuferi et al., 2012), these in vivo results emphasize the potential of DHODH inhibition as a therapeutic approach in the most common form of epilepsy.

[10] = system: CA3-CA1 synaptic transmission; assay: fEPSP recording in acute hippocampal slices
Description: Having established an essential role of DHODH activity in regulating MFR and E/I balance in hippocampal cultures, we asked whether acute DHODH inhibition modulates basal synaptic transmission in a more intact preparation—acute hippocampal slices. We evoked electrical stimulation in CA3 axons, comprising the Schaffer Collateral (SC) pathway of the hippocampus, and recorded the extracellular field excitatory postsynaptic potentials (fEPSP) in the stratum radiatum. We estimated the effect of teriflunomide (50 μM) on basal CA3-CA1 synaptic transmission evoked by low frequency stimulation of 0.1 Hz.
Next, we examined how DHODH inhibition affects short-term synaptic plasticity evoked by high-frequency spike bursts. This type of plasticity plays an important role in working memory function.

[11] = system: CA3-CA1 hippocampal connections; assay: in vivo fEPSP recording after ICV injection; settings: ICV 100 mM/1 μl daily for 3 days, bursts of 3 stimuli at 50 Hz, anesthetized mice
Procedure: Finally, we used intracerebroventricular (ICV) injection of teriflunomide to test its effect on hippocampal synaptic plasticity in vivo. For this, we injected teriflunomide (100 mM/1 μl daily) for 3 consecutive days and then performed electrophysiological fEPSP recording in vivo in anesthetized (2% isoflurane) mice. The recording electrodes were placed in the CA1 stratum radiatum, while the stimulating electrode was paced at the Schaffer Collateral fibers. We examined how inhibition of DHODH in the brain affects short-term synaptic plasticity in the hippocampus evoked by high-frequency spike bursts.

CC[C@@H](C(N)=O)N1CCCC1=O [levetiracetam]
memory [1]: improvement | metabolic hyperactivity in the hippocampus [1]: reduces | brain hyperactivity [2]: reduces | cognitive impairments [2]: improves

NCC(CC(=O)O)c1ccc(Cl)cc1 (stereo not drawn) [baclofen]
MFR acutely after baclofen ([3]; 10 μM baclofen added in the presence of teriflunomide): 0.3678±0.08 Hz | MFR stabilized over a 2-day period after baclofen ([3]; 10 μM baclofen in the presence of teriflunomide, 48 h): 2.00±0.35 Hz | firing rate after baclofen alone [4]: profound inhibition

C/C(O)=C(\C#N)C(=O)Nc1ccc(C(F)(F)F)cc1 [teriflunomide, (2Z)-2-cyano-3-hydroxy-N-[4-(trifluoromethyl)phenyl]but-2-enamide]
effect of teriflunomide on MFR in DHODH knockdown cultures [5]: did not produce long-term changes in MFR | effect of teriflunomide on MFR in DHODH knockdown cultures ([5]; listed as Teriflunomide): did not have a significant effect | neuronal mean firing rate (MFR) ([5]; 50 μM teriflunomide, after 4 h of application, baseline 3.95±0.27 Hz): 1.58±0.17 Hz | stability of the lower MFR induced by teriflunomide ([5]; 50 μM teriflunomide, time following application): stable for 14 hr | reduction in MFR with co-applied uridine ([5]; 100 μM uridine mono-phosphate co-applied with 50 μM teriflunomide, timescale of 2 days): does not occlude the reduction in maximum firing rate (MFR); also recorded: did not occlude the effect of teriflunomide on MFR; also recorded: did not occlude the reduction in MFR | input resistance (Rin) [6]: no change; also recorded: not affected | I/E ratio (GI/GE per neuron) ([7]; 4 hr to 2 days of teriflunomide incubation): elevated and remained high; also recorded: significant and stable increase | average integrated excitatory conductance (GE) ([7]; 2 days of teriflunomide incubation): remained lower for 2 days; also recorded: stable during 2 days of incubation | average integrated excitatory conductance (GE) ([7]; after 4 hr of teriflunomide incubation): dramatic decrease | integrated inhibitory conductance (GI) ([7]; after either 4 hr or 2 days of teriflunomide incubation): no significant change; also recorded: no significant reduction | decrease in mEPSC amplitude ([8]; 2 days teriflunomide incubation vs control): 26% | mEPSC frequency ([8]; 2 days teriflunomide incubation, p=0.08): not significantly affected; also recorded: did not reach statistical significance | MFR, new lower baseline value ([3]; 12 hr (overnight) incubation with 50 μM teriflunomide, original baseline 4.30±0.0.44 Hz): 2.50±0.38 Hz | behavioral seizure duration [9]: significantly reduces | fEPSP amplitude (basal CA3-CA1 transmission) ([10]; 50 μM teriflunomide, 0.1 Hz stimulation): gradual reduction | short-term synaptic facilitation (relative fEPSP amplitude within the burst) ([10]; bursts of 5 stimuli at 50 Hz, 30 min after teriflunomide): profoundly increased | short-term synaptic facilitation in vivo [11]: increase
